The values below come from patent publication US20080107625A1, “Inhibitors of Hepatitis C Virus” (Bristol-Myers Squibb Company, priority 2006, published 2008).

The structures appear in SMILES notation.

This experiment concerns the target HCV NS3/4A protease complex, BMS strain (Hepatitis C virus genotype 1a, UniProt P27958, C1454S/C1711G). Put plainly: FRET peptide assay to monitor HCV NS3/4A proteolytic activity (BMS strain). The class given is biochemical. The following applies: read-out: IC50 against the NS3/4A BMS strain in the enzyme assay. From the text:
HCV NS3 protease complexes, derived from the BMS strain, H77 strain or J4L6S strain, were generated, as described below. These purified recombinant proteins were generated for use in a homogeneous assay (see below) to provide an indication of how effective compounds of the present disclosure would be in inhibiting HCV NS3 proteolytic activity.
Serum from an HCV-infected patient was obtained from Dr. T. Wright, San Francisco Hospital. […]
In order to monitor HCV NS3/4A protease activity, an NS3/4A peptide substrate was used. […] The peptide also contains a fluorescence donor, EDANS, near one end of the peptide and an acceptor, DABCYL, near the other end. The fluorescence of the peptide is quenched by […] resonance energy transfer (RET) between the donor and the acceptor, but as the NS3 protease cleaves the peptide the products are released from RET quenching and the fluorescence of the donor becomes apparent.
The peptide substrate was incubated with one of the three recombinant NS3/4A protease complexes, in the absence or presence of a compound of the present disclosure. The inhibitory effects of a compound was determined by monitoring the formation of fluorescent reaction product in real time using a Cytofluor Series 4000. […]

HCV NS3/4A protease complex, BMS strain, sequence (P27958 1027-1711 C1454S/C1711G, one chain of several): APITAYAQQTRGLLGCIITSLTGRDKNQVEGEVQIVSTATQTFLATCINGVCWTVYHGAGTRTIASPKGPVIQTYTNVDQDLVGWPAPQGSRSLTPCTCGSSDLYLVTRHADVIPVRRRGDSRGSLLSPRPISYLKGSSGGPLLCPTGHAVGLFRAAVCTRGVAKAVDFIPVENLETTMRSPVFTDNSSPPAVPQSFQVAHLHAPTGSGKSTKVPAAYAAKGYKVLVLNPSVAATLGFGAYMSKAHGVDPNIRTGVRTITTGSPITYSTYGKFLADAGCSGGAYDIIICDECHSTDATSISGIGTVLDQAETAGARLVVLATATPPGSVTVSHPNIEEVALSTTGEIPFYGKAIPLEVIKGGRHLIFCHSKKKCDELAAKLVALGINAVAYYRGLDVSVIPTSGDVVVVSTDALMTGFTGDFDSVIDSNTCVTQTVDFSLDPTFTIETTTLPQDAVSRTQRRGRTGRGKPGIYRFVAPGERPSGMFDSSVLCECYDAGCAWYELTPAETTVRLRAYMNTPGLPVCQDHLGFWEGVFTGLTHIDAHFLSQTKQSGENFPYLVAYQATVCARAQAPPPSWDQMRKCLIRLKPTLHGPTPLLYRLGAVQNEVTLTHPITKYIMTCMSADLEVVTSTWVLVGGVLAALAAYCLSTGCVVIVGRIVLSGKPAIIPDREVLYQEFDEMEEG

Turning to `CC(C)(C)OC(=O)N[C@H]1CN(C2CC2)CCC/C=C\C2C[C@@]2(C(=O)NS(=O)(=O)C2CC2)NC(=O)[C@@H]2C[C@@H](Oc3ccccn3)CN2C1=O` (stereo partly shown) [Compound 1], the IC50 is 98 nM.
